# Measurements reported in patent US20220226298A1, “GPR40 AGONISTS” (Kallyope, Inc., priority 2019, published 2022).
# Assays:
# human GPR40 = molecular target: T1, human GPR40 (Homo sapiens, UniProt O14842); assay: Inositol phosphate accumulation assay (IP1 HTRF) in CHO-K1 cells expressing human GPR40; format: cell-based; settings: 90 min stimulation
# T1 construct: host or cells: CHO-K1
# Description: CHO-KI cells expressing human GPR40 were purchased from DiscoverX (95-1005C2). HEK293 cells expressing mouse FFAR1 were prepared using a mouse FFAR1 carrying plasmid purchased from OriGene Technologies (MR222997). The cells were transfected using Lipofectamine 2000 using manufacturer instructions and stable cell line was established from a single cell using geneticine selection. Assay ready frozen (ARF) cells were prepared and used throughout the study.
# The assay was performed in a 384-well plate format using IP1 assay kit from Cis-Bio. ARF cells expressing FFAR1 (mouse and human) were thawed, washed and then plated in the appropriate medium (F12 based medium for CHO hFFAR1 and DMEM based medium for HEK293 mFFAR1—both were supplemented with 10% FBS and penicillin/streptomycin). 20 μL of 3.5×10^5 cells/mL were plated on a Poly D-Lysine coated 384-well white plate. The cells were then incubated for 16 hr at 37° C./5% CO2. After 16 hr the medium was removed and 15 μL of stimulation buffer containing the test compounds was added to the cells. The plates were then incubated for 90 min at 37° C./5% CO2. 5 μL of detection buffer (prepared as described in the IP-one kit) was added to each well and the plates were incubated at RT for 1 hr.
# […] was measured using ClarioSTAR plate reader, calculating the ratio between emissions at 665 nm and 620 nm (HTRF ratio). HTRF ratio for positive (Max) and negative (Min) controls were used to normalize HTRF data and generate values for % activity. EC50 and Max activity values were determined using a standard 4-parameter fit.
# [1] = In vivo plasma levels in mice; settings: mouse, oral, 30 mg/kg; male C57BL/6J mice, dose 30 mpk, plasma concentration of test article (parent) 30 min post dose; read-out: 30 min Exposure: Parent
# Description: Male C57BL/6J mice 10-12 weeks old were acclimated to dosing (e.g., oral gavage) 2-3 times prior to the study. On the day of the study, food was removed for 5-6 hours, then the mice were dosed with test article or vehicle (e.g., by oral gavage at a volume of 10 mL/kg). Animals were euthanized with carbon dioxide typically 30 min post dose. Blood was collected via cardiac puncture for measurement of plasma concentrations of test article (parent) or metabolite resulting from ester cleavage.
# T1 sequence (O14842 whole entry): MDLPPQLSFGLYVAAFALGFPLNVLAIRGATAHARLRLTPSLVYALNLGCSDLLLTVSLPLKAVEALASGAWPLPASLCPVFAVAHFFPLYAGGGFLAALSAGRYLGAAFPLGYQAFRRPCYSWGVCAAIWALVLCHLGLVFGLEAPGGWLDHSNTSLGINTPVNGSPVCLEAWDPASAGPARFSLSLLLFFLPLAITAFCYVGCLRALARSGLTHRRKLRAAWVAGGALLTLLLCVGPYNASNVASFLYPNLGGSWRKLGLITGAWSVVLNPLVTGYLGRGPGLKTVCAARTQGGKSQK
SMILES,EC50 (human GPR40),concentration at 30 min [1]
COc1cc(-c2ccc(OC(=O)c3cccc([C@H](C4CC4)[C@H](C)C(=O)O)c3)c(C)c2)c(F)cn1 [Compound 56],≤ 10 nM,–
CC(c1cc(C(F)(F)F)ccc1C(F)(F)F)N1CC(C)(C(=O)Oc2cccc([C@@H](CC(=O)O)C3CC3)c2)C1 (stereo partly drawn) [Compound 12],10 to 100 nM,–
COC(=O)c1cnc(OC)cc1-c1ccc(C(=O)Oc2cccc([C@H](C3CC3)[C@H](C)C(=O)O)c2)cc1CN(C(C)C)C(C)C [Compound 53],≤ 10 nM,–
COc1cc(-c2ccc(OC(=O)c3cccc([C@H](C4CC4)[C@H](C)C(=O)O)c3)cc2)c(F)cn1 [Compound 54],≤ 10 nM,–
"COc1ccc(F)c([C@H]2CC[C@H](C(=O)Oc3cccc([C@H](C4CC4)[C@H](C)C(=O)O)c3)CC2)c1 [Compound 40, (2S,3R)-3-cyclopropyl-3-(3-(((1r,4R)-4-(2-fluoro-5-methoxyphenyl)cyclohexanecarbonyl)oxy)phenyl)-2-methylpropanoic acid]",≤ 10 nM,–
"COc1cc(-c2cc(F)c(C(=O)Oc3cccc([C@@H](CC(=O)O)C4CC4)c3)cc2CN(C(C)C)C(C)C)ccn1 [Compound 16, (S)-3-cyclopropyl-3-(3-((5-((diisopropylamino)methyl)-2-fluoro-4-(2-methoxypyridin-4-yl)benzoyl)oxy)phenyl)propanoic acid]",≤ 10 nM,–
"COc1ccc(F)c(-c2ccc(OC(=O)c3cccc([C@@H](CC(=O)O)C4CC4)c3)c(C)c2)c1 [Compound 45, (S)-3-cyclopropyl-3-(3-(((2′-fluoro-5′-methoxy-3-methyl-[1,1′-biphenyl]-4-yl)oxy)carbonyl)phenyl)propanoic acid]",100 to 500 nM,–
"COc1cc(-c2ccc(C(=O)Oc3cccc(C(CS(=O)(=O)O)C4CC4)c3)cc2CN(C(C)C)C(C)C)c(F)cn1 (stereo not drawn) [Compound 67, 2-cyclopropyl-2-(3-((3-((diisopropylamino)methyl)-4-(5-fluoro-2-methoxypyridin-4-yl)benzoyl)oxy)phenyl)ethanesulfonic acid]",> 500 nM,–
COc1cc(-c2cc(F)c(OC(=O)c3cccc([C@H](C4CC4)[C@H](C)C(=O)O)c3)cc2CN(C(C)C)C(C)C)c(F)cn1 [Compound 60],≤ 10 nM,–
COc1cc(-c2ccc(C(=O)Oc3cccc([C@H](C4CC4)[C@H](C)C(=O)O)c3)c(C)c2)c(C(=O)N(CCO)CCO)cn1 [Compound 52],> 500 nM,–
"COc1cc(-c2ccc(C(=O)Oc3cccc([C@H](C4CC4)[C@H](C)C(=O)O)c3)cc2CN(C(C)C)C(C)C)c(F)cn1 [Compound 26, (2S,3R)-3-cyclopropyl-3-(3-((3-((diisopropylamino)methyl)-4-(5-fluoro-2-methoxypyridin-4-yl)benzoyl)oxy)phenyl)-2-methylpropanoic acid]",≤ 10 nM,< 2 nM
O=C(O)C[C@H](c1cccc(C(=O)Oc2ccc(-c3cc(O)ccc3F)cc2)c1)C1CC1 [Compound 43],100 to 500 nM,–
CC(c1cc(C(F)(F)F)ccc1C(F)(F)F)N1CCC(C(=O)Oc2cccc([C@@H](CC(=O)O)C3CC3)c2)CC1 (stereo partly drawn) [Compound 9],10 to 100 nM,–
COc1cc(-c2cc(C)c(OC(=O)c3cccc([C@H](C4CC4)[C@H](C)C(=O)O)c3)cc2CN(C(C)C)C(C)C)c(F)cn1 [Compound 61],≤ 10 nM,–
"COc1cc(-c2ccc(C(=O)Oc3cccc([C@H](C4CC4)[C@H](C)C(=O)OCCP(=O)(O)O)c3)cc2CN(C(C)C)C(C)C)c(F)cn1 [Compound 68, (2-(((2S, 3R)-3-cyclopropyl-3-(3-((3-((diisopropylamino)methyl)-4-(5-fluoro-2-methoxypyridin-4-yl)benzoyl)oxy)phenyl)-2-methylpropanoyl)oxy)ethyl)phosphonic acid]",100 to 500 nM,–
"COc1cc(-c2ccc(C(=O)Oc3cccc([C@@H](CC(=O)O)C4CC4)c3)cc2CN(C(C)C)C(C)C)c(F)cn1 [Compound 15, (S)-3-cyclopropyl-3-(3-((3-((diisopropylamino)methyl)-4-(5-fluoro-2-methoxypyridin-4-yl)benzoyl)oxy)phenyl)propanoic acid]",≤ 10 nM,< 2 nM
"COc1ccc(C(=O)N(CC(C)(C)C)c2cccc(C)n2)c(-c2ccc(C(=O)Oc3cccc([C@H](C4CC4)[C@H](C)C(=O)O)c3)c(C)c2)c1 [Compound 31, (2S,3R)-3-cyclopropyl-3-(3-((5′-methoxy-3-methyl-2′-((6-methylpyridin-2-yl)(neopentyl)carbamoyl)-[1,1′-biphenyl]-4-carbonyl)oxy)phenyl)-2-methylpropanoic acid]",≤ 10 nM,–

SMILES,EC50 (human GPR40),concentration at 30 min [1]
"COc1ccc(F)c(-c2cc(C(=O)Oc3cccc([C@@H](CC(=O)O)C4CC4)c3)on2)c1 [Compound 7, (S)-3-cyclopropyl-3-(3-((3-(2-fluoro-5-methoxyphenyl)isoxazole-5-carbonyl)oxy)phenyl)propanoic acid]",> 500 nM,–
"COc1cc(-c2ccc(C(=O)Oc3cccc([C@H](C4CC4)[C@@](C)(F)C(=O)O)c3)cc2CN(C(C)C)C(C)C)c(F)cn1 [Compound 36, (2R,3S)-3-cyclopropyl-3-(3-((3-((diisopropylamino)methyl)-4-(5-fluoro-2-methoxypyridin-4-yl)benzoyl)oxy)phenyl)-2-fluoro-2-methylpropanoic acid]",≤ 10 nM,< 5 nM
"Cc1cc(-c2cc(O)ncc2F)c(CN(C(C)C)C(C)C)cc1C(=O)Oc1cccc([C@H](C2CC2)[C@@](C)(F)C(=O)O)c1 [Compound 64, (2R,3S)-3-cyclopropyl-3-(3-((5-((diisopropylamino)methyl)-4-(5-fluoro-2-hydroxypyridin-4-yl)-2-methylbenzoyl)oxy)phenyl)-2-fluoro-2-methylpropanoic acid]",> 500 nM,–
COc1cc(-c2cnc(C(=O)Oc3cccc([C@@H](CC(=O)O)C4CC4)c3)cn2)c(F)cn1 [Compound 23],> 500 nM,–
COc1ccc(F)c([C@H]2CC[C@H](C(=O)Oc3cccc([C@H](C4CC4)[C@@](C)(F)C(=O)O)c3)CC2)c1 [Compound 62],≤ 10 nM,–
CC(c1cc(C(F)(F)F)ccc1C(F)(F)F)N1CC[C@@H](OC(=O)c2cccc([C@@H](CC(=O)O)C3CC3)c2)C1 (stereo partly drawn) [Compound 48],> 500 nM,–
CCN(Cc1cc(C(=O)Oc2cccc([C@H](C3CC3)[C@@](C)(F)C(=O)O)c2)ccc1-c1cc(OC)ncc1F)C(C)C [Compound 37],≤ 10 nM,–
"COc1cc(-c2cc(C)c(C(=O)Oc3cccc([C@H](C4CC4)[C@H](C)C(=O)O)c3)cc2CN(C(C)C)C(C)C)c(F)cn1 [Compound 21, (2S,3R)-3-cyclopropyl-3-(3-((5-((diisopropylamino)methyl)-4-(5-fluoro-2-methoxypyridin-4-yl)-2-methylbenzoyl)oxy)phenyl)-2-methylpropanoic acid]",≤ 10 nM,–
"COc1cc(-c2ccc(C(=O)Oc3cccc([C@@H](CC(=O)O)C4CC4)c3)c(C)c2)c(F)cn1 [Compound 10, (S)-3-cyclopropyl-3-(3-((4-(5-fluoro-2-methoxypyridin-4-yl)-2-methylbenzoyl)oxy)phenyl)propanoic acid]",100 to 500 nM,–
COc1cc(-c2ccc(OC(=O)c3cccc([C@@H](CC(=O)O)C4CC4)c3)cc2)c(F)cn1 [Compound 44],100 to 500 nM,–
COc1cc(-c2ccc(C(=O)Oc3cccc([C@H](C4CC4)[C@H](C)C(=O)O)c3)cc2)c(F)cn1 [Compound 25],≤ 10 nM,–
"COc1cc(-c2cc(F)c(OC(=O)c3cccc([C@H](C4CC4)[C@H](C)C(=O)O)c3)cc2CN(C(C)C)C(C)C)ccn1 [Compound 59, (2S,3R)-3-cyclopropyl-3-(3-((5-((diisopropylamino)methyl)-2-fluoro-4-(2-methoxypyridin-4-yl)phenoxy)carbonyl)phenyl)-2-methylpropanoic acid]",≤ 10 nM,–
CC(c1cc(C(F)(F)F)ccc1C(F)(F)F)N1CC(OC(=O)c2cccc([C@@H](CC(=O)O)C3CC3)c2)C1 (stereo partly drawn) [Compound 47],> 500 nM,–
COc1cc(-c2ccc(OC(=O)c3cccc([C@H](C4CC4)[C@H](C)C(=O)O)c3)cc2CN(C(C)C)C(C)C)c(F)cn1 [Compound 58],≤ 10 nM,–
COc1cc(-c2cc(F)c(C(=O)Oc3cccc([C@H](C4CC4)[C@H](C)C(=O)O)c3)cc2CN(C(C)C)C(C)C)ccn1 [Compound 24],≤ 10 nM,–
COc1cc(-c2ccc(C(=O)Oc3cccc([C@@H](CC(=O)O)C4CC4)c3)c(F)c2)ccn1 [Compound 17],100 to 500 nM,–
